In PubChem BioAssay (NCI):
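In this assay, cells in 96-well plates receive the compound at five concentrations for 48 hours. Endpoints are linearly interpolated between the surrounding concentrations. TGI marks complete inhibition of growth.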

Tests used:
Assay in all cases: NCI-60 cell line screen, 48 h
IGROV1 ovarian = test system: IGROV1 ovarian
SK-MEL-2 melanoma = test system: SK-MEL-2 melanoma
OVCAR-5 ovarian = test system: OVCAR-5 ovarian
SNB-75 CNS = test system: SNB-75 CNS
HOP-18 NSCLC = test system: HOP-18 NSCLC
TK-10 renal = test system: TK-10 renal
UACC-257 melanoma = test system: UACC-257 melanoma
UO-31 renal = test system: UO-31 renal
SF-268 CNS = test system: SF-268 CNS
CCRF-CEM leukemia = test system: CCRF-CEM leukemia
SR leukemia = test system: SR leukemia
M14 melanoma = test system: M14 melanoma
MALME-3M melanoma = test system: MALME-3M melanoma
SK-MEL-5 melanoma = test system: SK-MEL-5 melanoma
A498 renal = test system: A498 renal
MOLT-4 leukemia = test system: MOLT-4 leukemia
COLO 205 colon = test system: COLO 205 colon
ACHN renal = test system: ACHN renal
LOX IMVI melanoma = test system: LOX IMVI melanoma
HL-60(TB) leukemia = test system: HL-60(TB) leukemia
EKVX NSCLC = test system: EKVX NSCLC
SNB-19 CNS = test system: SNB-19 CNS
CAKI-1 renal = test system: CAKI-1 renal
UACC-62 melanoma = test system: UACC-62 melanoma
HCC-2998 colon = test system: HCC-2998 colon
HOP-92 NSCLC = test system: HOP-92 NSCLC
SK-OV-3 ovarian = test system: SK-OV-3 ovarian
RXF 393 renal = test system: RXF 393 renal
KM12 colon = test system: KM12 colon
HT29 colon = test system: HT29 colon
SF-539 CNS = test system: SF-539 CNS
OVCAR-3 ovarian = test system: OVCAR-3 ovarian
KM20L2 colon = test system: KM20L2 colon
SK-MEL-28 melanoma = test system: SK-MEL-28 melanoma
HCT-15 colon = test system: HCT-15 colon
OVCAR-4 ovarian = test system: OVCAR-4 ovarian
NCI-H23 lung = test system: NCI-H23 lung
DMS 114 small cell lung = test system: DMS 114 small cell lung
A549 NSCLC = test system: A549 NSCLC
NCI-H226 lung = test system: NCI-H226 lung
SW-620 colon = test system: SW-620 colon
DLD-1 colon = test system: DLD-1 colon
LXFL 529 NSCLC = test system: LXFL 529 NSCLC
K-562 leukemia = test system: K-562 leukemia
NCI-H460 lung = test system: NCI-H460 lung
HCT-116 colon = test system: HCT-116 colon
786-0 renal = test system: 786-0 renal
DMS 273 small cell lung = test system: DMS 273 small cell lung
SF-295 CNS = test system: SF-295 CNS
M19-MEL melanoma = test system: M19-MEL melanoma
NCI-H522 lung = test system: NCI-H522 lung
RPMI-8226 leukemia = test system: RPMI-8226 leukemia
SN12C renal = test system: SN12C renal
OVCAR-8 ovarian = test system: OVCAR-8 ovarian
XF 498 CNS = test system: XF 498 CNS
U251 CNS = test system: U251 CNS
SNB-78 CNS = test system: SNB-78 CNS

Q: For CCC12C=CCN3CCC4(C(=C(C(=O)OC)C1)Nc1ccccc14)[C@H]32 (stereo not given in full), which TGI (IGROV1 ovarian) is on record?
A: > 100 µM

Q: What about the TGI (SK-MEL-2 melanoma) of the same molecule?
A: 52 µM

Q: What about the TGI (OVCAR-5 ovarian) of the same molecule?
A: > 100 µM

Q: And the TGI (SNB-75 CNS)?
A: 69 µM

Q: And the TGI (HOP-18 NSCLC)?
A: > 100 µM

Q: What about the TGI (TK-10 renal) of the same molecule?
A: > 100 µM

Q: And the TGI (UACC-257 melanoma)?
A: > 100 µM

Q: And the TGI (UO-31 renal)?
A: > 100 µM

Q: What about the TGI (SF-268 CNS) of the same molecule?
A: 45.4 µM

Q: What about the TGI (CCRF-CEM leukemia) of the same molecule?
A: 79.5 µM

Q: What about the TGI (SR leukemia) of the same molecule?
A: 34.8 µM

Q: And the TGI (M14 melanoma)?
A: 50.8 µM

Q: And the TGI (MALME-3M melanoma)?
A: > 100 µM

Q: What about the TGI (SK-MEL-5 melanoma) of the same molecule?
A: > 100 µM

Q: And the TGI (A498 renal)?
A: 79.4 µM

Q: What about the TGI (MOLT-4 leukemia) of the same molecule?
A: 93 µM

Q: What about the TGI (COLO 205 colon) of the same molecule?
A: 32.3 µM

Q: And the TGI (ACHN renal)?
A: > 100 µM

Q: What about the TGI (LOX IMVI melanoma) of the same molecule?
A: 53.4 µM

Q: What about the TGI (HL-60(TB) leukemia) of the same molecule?
A: 88.7 µM

Q: And the TGI (EKVX NSCLC)?
A: > 100 µM

Q: And the TGI (SNB-19 CNS)?
A: 75 µM

Q: What about the TGI (CAKI-1 renal) of the same molecule?
A: > 100 µM

Q: What about the TGI (UACC-62 melanoma) of the same molecule?
A: 67.6 µM

Q: And the TGI (HCC-2998 colon)?
A: > 100 µM

Q: What about the TGI (HOP-92 NSCLC) of the same molecule?
A: 87.7 µM

Q: And the TGI (SK-OV-3 ovarian)?
A: 49.7 µM

Q: And the TGI (RXF 393 renal)?
A: 56.7 µM

Q: What about the TGI (KM12 colon) of the same molecule?
A: > 100 µM

Q: What about the TGI (HT29 colon) of the same molecule?
A: 46.8 µM

Q: And the TGI (SF-539 CNS)?
A: 47.5 µM

Q: What about the TGI (OVCAR-3 ovarian) of the same molecule?
A: > 100 µM

Q: And the TGI (KM20L2 colon)?
A: 47.6 µM

Q: And the TGI (SK-MEL-28 melanoma)?
A: > 100 µM

Q: What about the TGI (HCT-15 colon) of the same molecule?
A: > 100 µM

Q: And the TGI (OVCAR-4 ovarian)?
A: > 100 µM

Q: What about the TGI (NCI-H23 lung) of the same molecule?
A: 93.6 µM

Q: And the TGI (DMS 114 small cell lung)?
A: 49.5 µM

Q: And the TGI (A549 NSCLC)?
A: > 100 µM

Q: And the TGI (NCI-H226 lung)?
A: 86.7 µM

Q: What about the TGI (SW-620 colon) of the same molecule?
A: 86 µM

Q: And the TGI (DLD-1 colon)?
A: > 100 µM

Q: And the TGI (LXFL 529 NSCLC)?
A: > 100 µM

Q: And the TGI (K-562 leukemia)?
A: 52.5 µM

Q: And the TGI (NCI-H460 lung)?
A: 41.9 µM

Q: What about the TGI (HCT-116 colon) of the same molecule?
A: > 100 µM

Q: What about the TGI (786-0 renal) of the same molecule?
A: 82 µM

Q: And the TGI (DMS 273 small cell lung)?
A: 42.8 µM

Q: What about the TGI (SF-295 CNS) of the same molecule?
A: 92.6 µM

Q: What about the TGI (M19-MEL melanoma) of the same molecule?
A: > 100 µM

Q: What about the TGI (NCI-H522 lung) of the same molecule?
A: 49.4 µM

Q: Which results are given for C(=NCCN=Cc1cccc2ccccc12)c1cccc2ccccc12?
A: TGI (IGROV1 ovarian): > 100 µM; TGI (SK-MEL-2 melanoma): > 100 µM; TGI (OVCAR-5 ovarian): > 100 µM; TGI (SNB-75 CNS): > 100 µM; TGI (HOP-18 NSCLC): > 100 µM; TGI (TK-10 renal): > 100 µM; TGI (UACC-257 melanoma): > 100 µM; TGI (UO-31 renal): > 100 µM; TGI (RPMI-8226 leukemia): > 100 µM; TGI (SR leukemia): > 100 µM; TGI (MALME-3M melanoma): > 100 µM; TGI (SN12C renal): > 100 µM; TGI (SK-MEL-5 melanoma): > 100 µM; TGI (OVCAR-8 ovarian): > 100 µM; TGI (MOLT-4 leukemia): > 100 µM; TGI (COLO 205 colon): > 100 µM; TGI (XF 498 CNS): > 100 µM; TGI (ACHN renal): > 100 µM; TGI (U251 CNS): > 100 µM; TGI (EKVX NSCLC): > 100 µM; TGI (SNB-19 CNS): > 100 µM; TGI (CAKI-1 renal): > 100 µM; TGI (UACC-62 melanoma): > 100 µM; TGI (HCC-2998 colon): > 100 µM; TGI (SK-OV-3 ovarian): > 100 µM; TGI (RXF 393 renal): > 100 µM; TGI (KM12 colon): > 100 µM; TGI (HT29 colon): > 100 µM; TGI (SF-539 CNS): > 100 µM; TGI (KM20L2 colon): > 100 µM; TGI (SK-MEL-28 melanoma): > 100 µM; TGI (HCT-15 colon): > 100 µM; TGI (OVCAR-4 ovarian): > 100 µM; TGI (NCI-H23 lung): > 100 µM; TGI (DMS 114 small cell lung): > 100 µM; TGI (A549 NSCLC): > 100 µM; TGI (NCI-H226 lung): > 100 µM; TGI (SW-620 colon): > 100 µM; TGI (DLD-1 colon): > 100 µM; TGI (LXFL 529 NSCLC): > 100 µM; TGI (K-562 leukemia): > 100 µM; TGI (NCI-H460 lung): > 100 µM; TGI (HCT-116 colon): > 100 µM; TGI (786-0 renal): > 100 µM; TGI (DMS 273 small cell lung): > 100 µM; TGI (SF-295 CNS): > 100 µM; TGI (SNB-78 CNS): > 100 µM; TGI (M19-MEL melanoma): > 100 µM; TGI (NCI-H522 lung): > 100 µM
